For 34 molecules, IC50 results are on record in US9999616B2 (ZENITH EPIGENETICS LTD., priority 2013, dated 2018).

For the test, the target named is Brd4 bromodomain 1 (BRD4(1)) (Homo sapiens, UniProt O60885). The experiment in a line: Inhibition of tetra-acetylated histone H4 binding to Brd4 bromodomain 1, measured by FRET (HTRF). Details: made in house; host or cells: E. coli BL21(DE3). To be noted: 2 h at room temperature. The protocol: Proteins were cloned and overexpressed with a N-terminal 6×His tag, then purified by nickel affinity followed by size exclusion chromatography. Briefly, E. coli BL21(DE3) cells were transformed with a recombinant expression vector encoding N-terminally Nickel affinity tagged bromodomains from Brd2, Brd3, Brd4. Cell cultures were incubated at 37° C. with shaking to the appropriate density and induced overnight with IPTG. The supernatant of lysed cells was loaded onto Ni-IDA column for purification. Eluted protein was pooled, concentrated and further purified by size exclusion chromatography. Fractions representing monomeric protein were pooled, concentrated, aliquoted, and frozen at −80° C. for use in subsequent experiments.
Binding of tetra-acetylated histone H4 and BET bromodomains was confirmed by a Homogenous Time Resolved Fluorescence Resonance Energy Transfer (HTRF®) method. N-terminally His-tagged bromodomains (200 nM) and biotinylated tetra-acetylated histone H4 peptide (25-50 nM, Millipore) were incubated in the presence of Europium Cryptate-labeled streptavidin (Cisbio Cat. #610SAKLB) and XL665-labeled monoclonal anti-His antibody (Cisbio Cat. #61HISXLB) in a white 96 well microtiter plate (Greiner). For inhibition assays, serially diluted test compound was added to these reactions in a 0.2% final concentration of DMSO. Duplicate wells were used for each concentration tested. Final buffer concentrations were 30 mM HEPES pH 7.4, 30 mM NaCl, 0.3 mM CHAPS, 20 mM phosphate pH 7.0, 320 mM KF, 0.08% BSA. After a 2 h incubation at room temperature, fluorescence was measured at 665 and 620 nm with a SynergyH4 plate reader (Biotek). The binding inhibitory activity was shown by a decrease in 665 nm relative to 620 nm fluorescence. IC50 values were determined from a dose response curve.

Structures are written as SMILES.

What is called IC50 is the concentration needed to halve the response being measured. For the molecule `Cc1noc(C)c1-c1nc(-c2c(C)noc2C)c2ccccc2n1` [Example Compound 3, 4,4′-(quinazoline-2,4-diyl)bis (3,5-dimethyl isoxazole)], the IC50 was in the range of 3 to 30 µM. As to `Cc1noc(C)c1-c1cn2ccnc2c(-c2c(C)noc2C)n1` [Example Compound 10, 4,4′-(imidazo [1,2-a]pyrazine-6,8-diyl)bis(3,5-dimethylisoxazole)], the IC50 was in the range of 3 to 30 µM. `Cc1noc(C)c1-c1cc(-c2c(C)nn(C)c2C)cc2[nH]cnc12` [Example Compound 14, 3,5-dimethyl-4-(6-(1,3,5-trimethyl-1H-pyrazol-4-yl)-1H-benzo[d]imidazol-4-yl)isoxazole]: the IC50 fell in the range of 3 to 30 µM. The value for `Cc1noc(C)c1-c1cc(-c2c(C)noc2C)c2ncnn2c1` [Example Compound 17, 4,4′-([1,2,4]triazolo [1,5-a]pyridine-6,8-diyl)bis (3,5-dimethyl-isoxazole)] was 3 to 30 µM; that for `Cc1noc(C)c1-c1cc(-c2c(C)noc2C)c2nc(NCc3ccccc3)[nH]c2c1` [Example Compound 31, N-benzyl-4,6-bis(3,5-dimethylisoxazol-4-yl)-1H-benzo[d] imidazol-2-amine] was not above 0.3 µM.

For `Cc1noc(C)c1-c1cc(Nc2cnccn2)c2nc[nH]c2c1` [Example Compound 62, 6-(3,5 dimethyl-isoxazol-4-yl)-N-(pyrazin-2-yl)-1H-benzo[d] imidazol-4-amine], the IC50 was in the range of 0.3 to 3 µM. Turning to `Cc1nc2c(Nc3ncccc3C)cc(-c3c(C)noc3C)cc2[nH]1` [Example Compound 63, 6-(3,5-dimethyl-isoxazol-4-yl)-2-methyl-N-(3-methylpyridin-2-yl)-1H-benzo[d] imidazol-4-amine], the IC50 was in the range of 0.3 to 3 µM. On to `Cc1noc(C)c1-c1cc(-c2c(C)noc2C)c2nc(NCc3cccnc3)[nH]c2c1` [Example Compound 65, 4,6-bis(3,5-dimethyl-isoxazol-4-yl)-N-(pyridin-3-ylmethyl)-1H-benzo[d] imidazol-2-amine], for which the IC50 was not above 0.3 µM. The value for `Cc1nc2c(-c3ccccc3C#N)cc(-c3c(C)noc3C)cc2[nH]1` [Example Compound 71, 2-(6-(3,5-dimethyl-isoxazol-4-yl)-2-methyl-1H-benzo[d]imidazol-4-yl)benzonitrile] was 3 to 30 µM. The value for `Cc1nc2c(-c3cc(C(=O)O)ccc3C)cc(-c3c(C)noc3C)cc2[nH]1` [Example Compound 75, 3-(6-(3,5-dimethyl-isoxazol-4-yl)-2-methyl-1H-benzo[d]imidazol-4-yl)-4-methyl benzoic acid] was 0.3 to 3 µM. As for `Cc1nc2c(-c3ccccc3C(F)(F)F)cc(-c3c(C)noc3C)cc2[nH]1` [Example Compound 78, 3,5-dimethyl-4-(2-methyl-4-(2-(trifluoromethyl)phenyl)-1H-benzo[d]imidazol-6-yl)isoxazole], the IC50 was 0.3 to 3 µM. The value for `Cc1nc2c(-c3cccnc3N)cc(-c3c(C)noc3C)cc2[nH]1` [Example Compound 82, 3-(6-(3,5-dimethyl-isoxazol-4-yl)-2-methyl-1H-benzo[d]imidazol-4-yl)pyridin-2-amine] was 0.3 to 3 µM. The value for `Cc1nc2c(-c3cccc(F)c3C#N)cc(-c3c(C)noc3C)cc2[nH]1` [Example Compound 83, 2-(6-(3,5-dimethyl-isoxazol-4-yl)-2-methyl-1H-benzo[d]imidazol-4-yl)-6-fluoro-benzonitrile] was 0.3 to 3 µM; that for `Cc1ccc(-c2cc(-c3c(C)noc3C)cc3[nH]c(C)nc23)nn1` [Example Compound 86, 3,5-dimethyl-4-(2-methyl-4-(6-methyl-pyridazin-3-yl)-1H-benzo[d]imidazol-6-yl)isoxazole] was 0.3 to 3 µM. For the molecule `Cc1nc2c(-c3ccc(Cl)cc3C)cc(-c3c(C)noc3C)cc2[nH]1` [Example Compound 90, 4-(4-(4-chloro-2-methyl-phenyl)-2-methyl-1H-benzo[d]imidazol-6-yl)-3,5-dimethyl isoxazole], the IC50 is 0.3 to 3 µM. In the case of `Cc1nc2c(-c3cccc(OC(F)(F)F)c3)cc(-c3c(C)noc3C)cc2[nH]1` [Example Compound 96, 3,5-dimethyl-4-(2-methyl-4-(3-(trifluoro-methoxy)phenyl)-1H-benzo[d]imidazol-6-yl)isoxazole], the IC50 is not above 0.3 µM. Regarding `Cc1nc2cc(-c3c(C)noc3C)cc(-c3c(C)noc3C)c2o1` [Example Compound 101, 5,7-bis(3,5-dimethylisoxazol-4-yl)-2-methylbenzo[d]oxazole], the half-inhibitory concentration (IC50) is not above 0.3 µM.

As to `COc1ccccc1S(=O)(=O)Nc1cc(-c2c(C)noc2C)cc2[nH]cnc12` [Example Compound 102, N-(6-(3,5-dimethylisoxazol-4-yl)-1H-benzo[d]imidazol-4-yl)-2-methoxybenzenesulfonamide], the IC50 fell in the range of 0.3 to 3 µM.

Turning to `Cc1nc2c(-c3cccc4cccnc34)cc(-c3c(C)noc3C)cc2[nH]1` [Example Compound 111, 3,5-dimethyl-4-(2-methyl-4-(quinolin-8-yl)-1H-benzo[d]imidazol-6-yl)isoxazole], the IC50 lay within 0.3 to 3 µM. The value for `Cc1nc2c(-c3ncsc3C)cc(-c3c(C)noc3C)cc2[nH]1` [Example Compound 113, 3,5-dimethyl-4-(2-methyl-4-(5-methyl-thiazol-4-yl)-1H-benzo[d]imidazol-6-yl)isoxazole] was 0.3 to 3 µM; that for `Cc1nc2c(-c3cn(C)nc3C(F)(F)F)cc(-c3c(C)noc3C)cc2[nH]1` [Example Compound 115, 3,5-dimethyl-4-(2-methyl-4-(1-methyl-3-(trifluoro-methyl)-1H-pyrazol-4-yl)-1H-benzo[d]imidazol-6-yl)isoxazole] was 0.3 to 3 µM; that for `Cc1noc(C)c1-c1cc(-c2c(C)noc2C)c2nc(N(C)C)[nH]c2c1` [Example Compound 116, 4,6-bis(3,5-dimethyl-isoxazol-4-yl)-N,N-dimethyl-1H-benzo[d] imidazol-2-amine] was 0.3 to 3 µM. For `Cc1nc2c(N3CCCCC3=O)cc(-c3c(C)noc3C)cc2[nH]1` [Example Compound 122, 1-(6-(3,5-dimethylisoxazol-4-yl)-2-methyl-1H-benzo[d]imidazol-4-yl)piperidin-2-one], the IC50 was 0.3 to 3 µM. For `Cc1nc2c(-c3cn(C)nc3C)cc(-c3cn(C)nc3C)cc2[nH]1` [Example Compound 133, 4,6-bis(1,3-dimethyl-1H-pyrazol-4-yl)-2-methyl-1H-benzo[d] imidazole], the IC50 lay within 3 to 30 µM. For the molecule `Cc1nc2c(-c3ccnn3C)cc(-c3ccnn3C)cc2[nH]1` [Example Compound 134, 2-methyl-4,6-bis(1-methyl-1H-pyrazol-5-yl)-1H-benzo[d] imidazole], the IC50 lay within 0.3 to 3 µM. The value for `Cc1noc(C)c1-c1cc(-c2c(C)noc2C)c2n[nH]c(=O)n2c1` [Example Compound 149, 6,8-bis(3,5-dimethyl-isoxazol-4-yl)-[1,2,4] triazolo[4,3-a] pyridin-3(2H)-one] was 3 to 30 µM; that for `Cc1noc(C)c1-c1cc(-c2c(C)noc2C)c2nccnc2c1` [Example Compound 159, 4,4′-(quinoxaline-5,7-diyl)bis(3,5-dimethylisoxazole)] was 0.3 to 3 µM; that for `Cc1nc2c(-c3c(C)cnn3C)cc(-c3c(C)cnn3C)cc2[nH]1` [Example Compound 167, 4,6-bis(1,4-dimethyl-1H-pyrazol-5-yl)-2-methyl-1H-benzo[d] imidazole] was 0.3 to 3 µM. For the molecule `Cc1nc2c(-c3sc(C)nc3C)cc(-c3sc(C)nc3C)cc2[nH]1` [Example Compound 168, 5,5′-(2-methyl-1H-benzo[d]imidazole-4,6-diyl) bis(2,4-dimethylthiazole)], the IC50 was in the range of 3 to 30 µM. As to `Cc1nc2c(-c3c(C)noc3C)cc(-c3c(C)noc3C)nc2[nH]1` [Example Compound 176, 4,4′-(2-methyl-3H-imidazo[4,5-b]pyridine-5,7-diyl)bis(3,5-dimethylisoxazole)], the IC50 lay within 0.3 to 3 µM.

With `CSc1nc2cc(-c3c(C)noc3C)cc(-c3c(C)nn(C)c3C)c2n1C` [Example Compound 191, 3,5-dimethyl-4-(1-methyl-2-(methylthio)-7-(1,3,5-trimethyl-1H-pyrazol-4-yl)-1H-benzo[d]imidazol-5-yl)isoxazole], the IC50 is not above 0.3 µM.

Turning to `Cc1ccc(C#N)cc1-c1cc(-c2c(C)noc2C)cc2[nH]c(N3CCOCC3)nc12` [Example Compound 193, 3-(6-(3,5-dimethyl-isoxazol-4-yl)-2-morpholino-1H-benzo[d]imidazol-4-yl)-4-methyl benzonitrile], the IC50 is not above 0.3 µM. The value for `Cc1ccncc1-c1cc(-c2c(C)noc2C)cc2[nH]c(N3CCN(C)CC3)nc12` [Example Compound 199, 3,5-dimethyl-4-(2-(4-methylpiperazin-1-yl)-4-(4-methylpyridin-3-yl)-1H-benzo[d]imidazol-6-yl)isoxazole] was 0.3 to 3 µM; that for `Cc1noc(C)c1-c1cc(-c2c(C)nn(C)c2C)c2nc(N3CCC3)[nH]c2c1` [Example Compound 217] was not above 0.3 µM.
